Results from PubChem BioAssay AID248 (DTP/NCI, 2004).
Several values for one entry are separate records, joined by “and”; a condition that tells them apart may be missing. Equal values may be shown once. Toxic doses and inconclusive results are not listed. Cut-off read from the data, not from the text of the source: active = T/C of 150% or more; inactive = T/C below 125%.

Tested on: L1210 leukemia ip in BDF1 mice, survival T/C
Assay: NCI In Vivo Anticancer Drug Screen. Data for tumor model L1210 Leukemia (intraperitoneal) in B6D2F1 (BDF1) mice
Conditions: endpoint: mean survival time, higher = longer survival
Procedure, shortened: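 Survival endpoint. Drug-treated group vs vehicle group, expressed as T divided by C. Tumor passaged by transplantation.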

[1] = dose: 100.0 mg/kg/injection, schedule: Q01DX009 (ip), vehicle: Klucel (hydroxypropylcellulose) (HPC)
[2] = dose: 200.0 mg/kg/injection, schedule: Q01DX009 (ip), vehicle: Klucel (hydroxypropylcellulose) (HPC)
[3] = dose: 400.0 mg/kg/injection, schedule: Q01DX009 (ip), vehicle: Klucel (hydroxypropylcellulose) (HPC)
[4] = dose: 100.0 mg/kg/injection, schedule: Q01DX009 (ip), vehicle: saline
[5] = dose: 200.0 mg/kg/injection, schedule: Q01DX009 (ip), vehicle: saline
[6] = dose: 400.0 mg/kg/injection, schedule: Q01DX009 (ip), vehicle: saline
[7] = dose: 75.0 mg/kg/injection, schedule: Q01DX001 (ip), vehicle: carboxymethylcellulose (CMC)
[8] = dose: 150.0 mg/kg/injection, schedule: Q01DX001 (ip), vehicle: carboxymethylcellulose (CMC)
[9] = dose: 75.0 mg/kg/injection, schedule: Q04DX003 (ip), vehicle: saline
[10] = dose: 150.0 mg/kg/injection, schedule: Q04DX003 (ip), vehicle: saline
[11] = dose: 300.0 mg/kg/injection, schedule: Q04DX003 (ip), vehicle: saline
[12] = dose: 100.0 mg/kg/injection, schedule: Q04DX002 (ip), vehicle: Klucel (hydroxypropylcellulose) (HPC)
[13] = dose: 200.0 mg/kg/injection, schedule: Q04DX002 (ip), vehicle: Klucel (hydroxypropylcellulose) (HPC)
[14] = dose: 400.0 mg/kg/injection, schedule: Q04DX002 (ip), vehicle: Klucel (hydroxypropylcellulose) (HPC)
[15] = dose: 50.0 mg/kg/injection, schedule: Q01DX001 (ip), vehicle: saline
[16] = dose: 100.0 mg/kg/injection, schedule: Q01DX001 (ip), vehicle: saline
[17] = dose: 200.0 mg/kg/injection, schedule: Q01DX001 (ip), vehicle: saline
[18] = dose: 400.0 mg/kg/injection, schedule: Q01DX001 (ip), vehicle: saline
[19] = dose: 100.0 mg/kg/injection, schedule: Q01DX009 (ip), vehicle: saline with Tween-80
[20] = dose: 200.0 mg/kg/injection, schedule: Q01DX009 (ip), vehicle: saline with Tween-80
[21] = dose: 400.0 mg/kg/injection, schedule: Q01DX009 (ip), vehicle: saline with Tween-80
[22] = dose: 100.0 mg/kg/injection, schedule: Q04DX003 (ip), vehicle: saline
[23] = dose: 200.0 mg/kg/injection, schedule: Q04DX003 (ip), vehicle: saline
[24] = dose: 400.0 mg/kg/injection, schedule: Q04DX003 (ip), vehicle: saline
[25] = dose: 100.0 mg/kg/injection, schedule: Q04DX003 (ip), vehicle: Klucel (hydroxypropylcellulose) (HPC)
[26] = dose: 200.0 mg/kg/injection, schedule: Q04DX003 (ip), vehicle: Klucel (hydroxypropylcellulose) (HPC)
[27] = dose: 400.0 mg/kg/injection, schedule: Q04DX003 (ip), vehicle: Klucel (hydroxypropylcellulose) (HPC)
[28] = dose: 100.0 mg/kg/injection, schedule: Q04DX003 (ip), vehicle: saline with Tween-80
[29] = dose: 200.0 mg/kg/injection, schedule: Q04DX003 (ip), vehicle: saline with Tween-80
[30] = dose: 400.0 mg/kg/injection, schedule: Q04DX003 (ip), vehicle: saline with Tween-80

Measured: T/C

COc1ccc(OC)c(NC(=O)Nc2ccc([N+](=O)[O-])cc2OC)c1
inactive: [1] 96 % of control | [2] 93 % of control | [3] 94 % of control

CCOC(=O)/C=C(/OC(=O)c1ccccc1)c1ccccc1
inactive: dose: 100.0 mg/kg/injection, schedule: Q01DX001 (ip), vehicle: acetone 95 % of control | [4] 107 % of control | dose: 200.0 mg/kg/injection, schedule: Q01DX001 (ip), vehicle: acetone 97 % of control | [5] 107 % of control | dose: 400.0 mg/kg/injection, schedule: Q01DX001 (ip), vehicle: acetone 103 % of control | [6] 94 % of control

CC(C)/C=N/NP(Br)(c1ccccc1)(c1ccccc1)c1ccccc1
inactive: [7] 93 % of control | [8] 95 % of control | dose: 300.0 mg/kg/injection, schedule: Q01DX001 (ip), vehicle: carboxymethylcellulose (CMC) 102 % of control

CC(=O)CCN1CCCCC1
inactive: dose: 20.0 mg/kg/injection, schedule: Q04DX003 (ip), vehicle: saline 124 % of control

CCCCCCCC/C=C\CCCCCCCC(=O)NCCCOCCOCC
inactive: [9] 94 % of control | [10] 96 % of control | [11] 96 % of control

O=C(Nc1ccccc1C(=O)OCc1ccc([N+](=O)[O-])cc1)OCc1ccccc1
inactive: [9] 98 % of control | [10] 98 % of control | [11] 104 % of control

CNC(=O)Oc1ccccc1C(C)C
inactive: [12] 91 % of control | [13] 94 % of control | [14] 95 % of control and 98 % of control

CC[P+](C)(CC)c1ccccc1
inactive: dose: 15.0 mg/kg/injection, schedule: Q01DX001 (ip), vehicle: saline 98 % of control | dose: 30.0 mg/kg/injection, schedule: Q01DX001 (ip), vehicle: saline 101 % of control

COc1ccc(Cc2c3cc(OC)c(OC)cc3cc[n+]2Cc2ccc(N(CCCl)CCCl)cc2)cc1OC
inactive: [7] 100 % of control | [8] 94 % of control

CC/C(C)=C\CC/C(C)=C\COc1ccccc1[N+](=O)[O-]
inactive: dose: 100.0 mg/kg/injection, schedule: Q01DX009 (ip), vehicle: carboxymethylcellulose (CMC) 100 % of control | dose: 200.0 mg/kg/injection, schedule: Q01DX009 (ip), vehicle: carboxymethylcellulose (CMC) 100 % of control | dose: 400.0 mg/kg/injection, schedule: Q01DX009 (ip), vehicle: carboxymethylcellulose (CMC) 98 % of control

O=C(/C=C\c1ccc(/C=C\C(=O)c2ccccc2O)cc1)c1ccccc1O
inactive: [15] 97 % of control | [16] 97 % of control | [17] 97 % of control | [18] 103 % of control

Nc1nc(N)c(N)c(N=O)n1
inactive: dose: 100.0 mg/kg/injection, schedule: Q01DX Z (ip), vehicle: methylcellulose (MC) 86 % of control

OC(/C=C/c1ccccc1)C(O)/C=C/c1ccccc1 (stereo not given)
inactive: [19] 102 % of control | [20] 104 % of control | [21] 111 % of control

CC(=O)C(=O)N1Cc2cc3ccccc3nc2C1
inactive: [22] 115 % of control | [23] 102 % of control | [24] 102 % of control

CON(C)S(=O)(=O)c1ccccc1
inactive: [25] 103 % of control | [26] 97 % of control | [27] 95 % of control

CC1(OC(=O)c2ccccc2)C2C=CC1C1C(=O)NC12 (stereo not given)
inactive: [1] 87 % of control | [25] 106 % of control | [2] 102 % of control | [26] 102 % of control | [3] 104 % of control | [27] 96 % of control

CC(C)(C)c1cccc(C(C)(C)C)n1
inactive: [28] 97 % of control | [29] 105 % of control | [30] 115 % of control

O=[N+]([O-])c1ccc(-c2cc3ccccc3[n+]([O-])c2)cc1
inactive: [16] 98 % of control | [17] 101 % of control | [18] 101 % of control

OC1C=NC=N1 (stereo not given)
inactive: [22] 92 % of control | [23] 109 % of control | [24] 95 % of control

S=c1nc[nH]c2cc[nH]c12
inactive: dose: 100.0 mg/kg/injection, schedule: Q01DX001 (ip), vehicle: other 95 % of control | dose: 200.0 mg/kg/injection, schedule: Q01DX001 (ip), vehicle: other 98 % of control | dose: 400.0 mg/kg/injection, schedule: Q01DX001 (ip), vehicle: other 101 % of control

CN(C)S(=O)(=O)/C=C/c1ccccc1
inactive: [26] 95 % of control | [27] 109 % of control

[O-]c1c[n+](C23CCC(c4ccccc42)c2ccccc23)no1
inactive: [1] 102 % of control | [25] 100 % of control | [2] 102 % of control | [26] 103 % of control | [3] 95 % of control | [27] 100 % of control

Cc1cc(O)c2c(c1O)C(=O)c1ccccc1C2=O
inactive: dose: 50.0 mg/kg/injection, schedule: Q01DX009 (ip), vehicle: saline 95 % of control | [4] 95 % of control | [22] 98 % of control | [5] 95 % of control | [23] 96 % of control | [6] 104 % of control | [24] 93 % of control

CN=NC(C)(C)OC(C)=O
inactive: dose: 12.5 mg/kg/injection, schedule: Q01DX001 (ip), vehicle: saline 97 % of control | dose: 12.5 mg/kg/injection, schedule: Q01DX009 (ip), vehicle: saline 101 % of control | dose: 12.5 mg/kg/injection, schedule: Q04DX003 (ip), vehicle: saline 107 % of control | dose: 25.0 mg/kg/injection, schedule: Q01DX001 (ip), vehicle: saline 96 % of control | dose: 25.0 mg/kg/injection, schedule: Q01DX009 (ip), vehicle: saline 108 % of control | dose: 25.0 mg/kg/injection, schedule: Q04DX003 (ip), vehicle: saline 107 % of control | [15] 107 % of control | dose: 50.0 mg/kg/injection, schedule: Q04DX003 (ip), vehicle: saline 98 % of control

OCNC(=S)c1c(Cl)cccc1Cl
inactive: [28] 100 % of control | [29] 102 % of control | [30] 102 % of control

CC1=NN(c2ccccc2)C(=O)C1N=Nc1ccc([As](=O)(O)O)c(O)c1 (stereo not given)
inactive: [16] 96 % of control | [17] 102 % of control | [18] 100 % of control

O=C1CCCCC1c1sc([N+](=O)[O-])cc1[N+](=O)[O-] (stereo not given)
inactive: dose: 100.0 mg/kg/injection, schedule: Q04DX002 (ip), vehicle: saline with Tween-80 93 % of control | dose: 200.0 mg/kg/injection, schedule: Q04DX002 (ip), vehicle: saline with Tween-80 104 % of control

O=C1OC(/C=C/c2ccccc2)=NC/1=C\C=C\c1ccccc1
inactive: [12] 107 % of control | [13] 104 % of control | [14] 104 % of control

COc1ccc([N+](=O)[O-])cc1[I+]c1cc([N+](=O)[O-])ccc1OC
inactive: [15] 111 % of control | [16] 90 % of control | [17] 96 % of control | [18] 90 % of control

COC1(OC)C2CCC1(Cl)C(Cl)=C2Cl (stereo not given)
inactive: [19] 95 % of control | [28] 93 % of control | [20] 92 % of control | [29] 91 % of control | [21] 89 % of control

O=[N+]([O-])c1ccc(S(=O)(=O)CCCl)cc1
inactive: dose: 50.0 mg/kg/injection, schedule: Q01DX009 (ip), vehicle: Klucel (hydroxypropylcellulose) (HPC) 100 % of control | [1] 91 % of control

NC(=O)c1nc2c([nH]c1=O)CCCC2
inactive: [19] 94 % of control | [28] 93 % of control | [20] 94 % of control | [29] 94 % of control | [21] 94 % of control | [30] 94 % of control

CCOC(=O)C(C(=O)OCC)C1c2ccccc2-c2ccccc21
inactive: [25] 102 % of control | [26] 96 % of control | [27] 100 % of control
